This is an account of results in article PMC6268909 (Molecules, 2012).

In data set [1] the test system is Agrobacterium tumefaciens ATCC 11158. Put plainly: microbe, parasite or virus in culture. The class given is cell-based. The conditions noted are these: ATCC11158, 24 h, read-out: IC50, antimicrobial activity, A. tum.
Data set [2] has as its system methicillin-resistant S. aureus. The conditions noted are these: cited from earlier work.
The next data set deals with C. sphaerospermum. The arrangement: method as in PMID 20158153. The conditions noted are these: compound from endophytic Penicillium sp.; cited from earlier work.
In data set [3] the test system is Cladosporium cladosporioides. Also on record: method as in PMID 20158153. Particulars: compound from endophytic Penicillium sp.; cited from earlier work.
In data set [4] the target is T1, acetylcholinesterase (AChE) (Homo sapiens, UniProt P22303).
T1 construct: purchased Sigma-Aldrich (St. Louis, MO, USA)
T1 sequence (P22303 32-614, species assumed): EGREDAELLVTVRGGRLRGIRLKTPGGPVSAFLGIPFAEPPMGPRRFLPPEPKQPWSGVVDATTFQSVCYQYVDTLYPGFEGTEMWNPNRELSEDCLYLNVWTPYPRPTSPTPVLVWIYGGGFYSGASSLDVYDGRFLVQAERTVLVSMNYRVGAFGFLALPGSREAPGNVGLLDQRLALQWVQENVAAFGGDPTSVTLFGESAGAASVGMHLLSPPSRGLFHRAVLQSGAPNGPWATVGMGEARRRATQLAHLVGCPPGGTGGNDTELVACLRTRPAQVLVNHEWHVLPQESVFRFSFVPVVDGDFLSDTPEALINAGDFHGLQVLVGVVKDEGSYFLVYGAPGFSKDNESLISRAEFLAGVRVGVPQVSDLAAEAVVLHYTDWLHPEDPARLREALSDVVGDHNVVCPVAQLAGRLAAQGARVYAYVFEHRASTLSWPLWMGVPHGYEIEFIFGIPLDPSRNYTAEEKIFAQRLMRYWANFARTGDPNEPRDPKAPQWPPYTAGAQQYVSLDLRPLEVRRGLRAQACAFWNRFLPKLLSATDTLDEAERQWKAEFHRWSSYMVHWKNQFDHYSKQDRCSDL
The data set can be described thus: biochemical.

The test system of data set [5] is Xanthomonas vesicatoria ATCC 11633. Put plainly: microbe, parasite or virus in culture. The class given is cell-based. Particulars: ATCC11633, 24 h, read-out: IC50, antimicrobial activity, X. ves.
Data set [6] deals with Bacillus subtilis ATCC 11562. The data set can be described thus: microbe, parasite or virus in culture. Particulars: ATCC11562, 24 h, read-out: IC50, antimicrobial activity, B. sub. Type of data set: cell-based.
In a further data set the test system is Bacillus megaterium. The arrangement: method as in earlier work. The conditions noted are these: compound from endophytic fungus of Meliotus dentatus; cited from earlier work.
For another data set, the system named is Staphylococcus aureus. The conditions noted are these: cited from earlier work.
In another data set the test system is Magnaporthe oryzae P131. The data set can be described thus: microbe, parasite or virus in culture. The class given is cell-based. The conditions noted are these: Pyricularia oryzae, read-out: IC50, antimicrobial activity, M. or.
The test system of data set [7] is Pseudomonas lachrymans ATCC 11921. Put plainly: microbe, parasite or virus in culture. Type of data set: cell-based. The conditions noted are these: ATCC11921, 24 h, read-out: IC50, antimicrobial activity, P. lach.
The next data set has as its system Microbotryum violacerum. The arrangement: method as in earlier work. Particulars: compound from endophytic fungus of Meliotus dentatus; cited from earlier work.
Data set [8] concerns Ralstonia solanacearum ATCC 11696. The data set can be described thus: microbe, parasite or virus in culture. Type of data set: cell-based. Particulars: ATCC11696, 24 h, read-out: IC50, antimicrobial activity, R. sol.
The next data set concerns Alternaria alternata. The arrangement: method as in PMID 15787237. Particulars: cited from earlier work.
Data set [9] addresses acetycholinesterase (AChE). The arrangement: method as in PMID 15787237. Particulars: previously reported; cited from earlier work.
Data set [10] relates to various cultured mammalian cells. Particulars: cited from earlier work.
Data set [11] relates to human colon carcinoma cells. Particulars: cited from earlier work.

Converted amounts (≈) assume the structure as drawn. Where a name gives a salt, the structure may show the parent alone. Read-outs that look alike come from different tables or passages of the source.

As for `CC1OC(=O)c2c(O)cccc2C1O` (centres unmarked) [4,8-dihydroxy-3-methylbenzopyran-1-one], the IC50 in data set [1] is 18.2 µg/mL (≈ 93.8 µM); in data set [4], 598 µM; in data set [5], 17.8 µg/mL (≈ 91.7 µM); in data set [6] it was 19.2 µg/mL (≈ 99 µM); in the data set with Magnaporthe oryzae P131 (P131, 7 h), 113 µg/mL (≈ 584 µM); in data set [7], 16.2 µg/mL (≈ 83.3 µM). The IC50 in [8] came out at 16.2 µg/mL (≈ 83.6 µM). Also, the MIC (in data set [2]; in the data set with Staphylococcus aureus) was 8 µg/mL (≈ 41.2 µM) in each case. Further, the results for the “antifungal activity at concentration” value (with C. sphaerospermum; in data set [3]) were 10.0 µg/mL and 5.00 µg/mL, respectively. Moreover, the antibacterial activity result in the data set on Bacillus megaterium is recorded as “strong antibacterial activity”. Besides, the antifungal activity entry in the data set with Microbotryum violacerum was “antifungal activity”.

As for `COC1=CC2(C)OC(=O)c3c(O)cc(OC)cc3C2=C(O)C1=O` (centres unmarked) [Botrallin (4), 1,7-dihydroxy-3,9-dimethoxy-4a-methyl-6H-dibenzo[b,d]pyran-2,6 (4aH)-dione], the MIC with Alternaria alternata was 62.5 µg/mL (≈ 196 µM). Besides, the IC50 in data set [1] is 87.5 µg/mL (≈ 275 µM); in data set [4], 326 µM; in data set [5] it was 86.3 µg/mL (≈ 271 µM); in [6], 98.5 µg/mL (≈ 309 µM); with Magnaporthe oryzae P131 (P131, 7 h at 25 °C) it was 107 µg/mL (≈ 337 µM); in data set [7], 92.2 µg/mL (≈ 290 µM). For the same molecule, the IC50 in data set [8] came to 85.5 µg/mL (≈ 269 µM). In addition, the “IC50, acetycholinesterase (AChE) inhibitory activity” value in data set [9] is 6.1 µg/mL (≈ 19.2 µM).

Regarding `COc1cc(O)c2c(=O)oc3cc(O)cc(C)c3c2c1` [Alternariol 9-methyl ether (3), 3,7-dihydroxy-9-methoxy-1-methyl-6H-dibenzo[b,d]pyran-6-one], the “DNA strand breaks, micronuclei and gene mutations” value in [10] was “induce DNA strand breaks, micronuclei and gene mutations”. Besides, the IC50 in data set [1] is 28.8 µg/mL (≈ 106 µM); in data set [4] it was 498 µM; in data set [5], 30.1 µg/mL (≈ 110 µM); in [6] it was 34.3 µg/mL (≈ 126 µM); in the data set with Magnaporthe oryzae P131 (P131, 7 h at 25 °C), 123 µg/mL (≈ 452 µM); in data set [7] it was 27.1 µg/mL (≈ 99.5 µM). In [8], the IC50 was 29.2 µg/mL (≈ 107 µM). In addition, in data set [11], the mitochondrial apoptosis entry was “induce mitochondrial apoptosis”.

As for `COC(=O)Nc1nc2ccccc2[nH]1` [carbendazim, reference compound], the IC50 in the data set on Magnaporthe oryzae P131 (P131, 7 h) was 13 µg/mL (≈ 68 µM).

As for `[H]/N=C(/N)N[C@H]1[C@H](O)[C@@H](O)[C@H](O[C@@H]2O[C@@H](C)[C@](O)(C=O)[C@H]2O[C@@H]2O[C@@H](CO)[C@H](O)[C@@H](O)[C@@H]2NC)[C@@H](N/C(N)=N\[H])[C@@H]1O` [streptomycin sulfate, reference compound], the IC50 in data set [1] was found to be 6.34 µg/mL; in [5], 6.79 µg/mL; in data set [6], 8.35 µg/mL; in data set [7] it was 8.34 µg/mL; in data set [8] it was 7.19 µg/mL.

As to `COc1cc(O)c2c(=O)oc3cc(O)c(Cl)c(C)c3c2c1` [Palmariol B (1), 2-chloro-3,7-dihydroxy-9-methoxy-1-methyl-6H-dibenzo[b,d]pyran-6-one], the IC50 in data set [1] is 19.4 µg/mL (≈ 63.1 µM); in data set [4] it was 376 µM; in [5], 28.1 µg/mL (≈ 91.7 µM); in [6], 27.7 µg/mL (≈ 90.2 µM); with Magnaporthe oryzae P131 (P131, 7 h at 25 °C), 119 µg/mL (≈ 387 µM); in data set [7], 16.7 µg/mL (≈ 54.6 µM). Also, in data set [8], the IC50 was 17.5 µg/mL (≈ 57.1 µM).
